# Test results: ChEMBL document CHEMBL3991601, “The target landscape of clinical kinase drugs” (Science, 2017)
# Calls of active or inactive are those of the source. Cut-off read from the data, not from the text of the source, for most assays here: actives have a measured Kd and inactives only a lower limit.
# Molecular target: T1, Activin receptor type-1 (Homo sapiens, UniProt Q04771)
# T1 sequence (Q04771 whole entry): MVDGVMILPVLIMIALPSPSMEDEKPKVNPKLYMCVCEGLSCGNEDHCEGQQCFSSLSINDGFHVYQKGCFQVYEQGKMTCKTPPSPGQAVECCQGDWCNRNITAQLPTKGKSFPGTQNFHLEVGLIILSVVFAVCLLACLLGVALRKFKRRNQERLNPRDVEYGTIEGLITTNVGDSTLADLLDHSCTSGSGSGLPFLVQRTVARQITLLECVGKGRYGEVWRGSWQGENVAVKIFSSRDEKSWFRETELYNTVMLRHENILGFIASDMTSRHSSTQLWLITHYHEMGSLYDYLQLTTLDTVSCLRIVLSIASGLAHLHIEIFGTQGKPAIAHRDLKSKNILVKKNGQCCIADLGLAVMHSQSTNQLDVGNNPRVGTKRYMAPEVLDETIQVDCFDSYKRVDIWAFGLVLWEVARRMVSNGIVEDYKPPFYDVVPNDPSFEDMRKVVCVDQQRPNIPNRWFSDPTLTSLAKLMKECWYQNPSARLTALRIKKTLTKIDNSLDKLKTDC
# Note: in the data inactive means no Kd found up to 30 µM.
row,Compound,Kd
1,Cc1nc(N)sc1-c1ccnc(Nc2ccc(N3CCOCC3)cc2)n1 [CYC-116],0.396 µM (active)
2,CCc1cnn2c(NCc3ccc[n+]([O-])c3)cc(N3CCCC[C@H]3CCO)nc12 [DINACICLIB],> 30 µM (inactive)
3,COc1cc2nccc(Oc3ccc(NC(=O)NC4CC4)c(Cl)c3)c2cc1C(N)=O [LENVATINIB],> 30 µM (inactive)
4,O=C(Nc1cccc(Cl)c1)Nc1ncc(CCNc2ncnc3ccsc23)s1 [SNS-314],> 30 µM (inactive)
5,COc1cc2nccc(Oc3ccc(NC(=O)Nc4cc(C)on4)c(Cl)c3)c2cc1OC [TIVOZANIB],> 30 µM (inactive)

# Molecular target: BMP-2-inducible protein kinase (Homo sapiens, UniProt Q9NSY1)
# Sequence (Q9NSY1 whole entry): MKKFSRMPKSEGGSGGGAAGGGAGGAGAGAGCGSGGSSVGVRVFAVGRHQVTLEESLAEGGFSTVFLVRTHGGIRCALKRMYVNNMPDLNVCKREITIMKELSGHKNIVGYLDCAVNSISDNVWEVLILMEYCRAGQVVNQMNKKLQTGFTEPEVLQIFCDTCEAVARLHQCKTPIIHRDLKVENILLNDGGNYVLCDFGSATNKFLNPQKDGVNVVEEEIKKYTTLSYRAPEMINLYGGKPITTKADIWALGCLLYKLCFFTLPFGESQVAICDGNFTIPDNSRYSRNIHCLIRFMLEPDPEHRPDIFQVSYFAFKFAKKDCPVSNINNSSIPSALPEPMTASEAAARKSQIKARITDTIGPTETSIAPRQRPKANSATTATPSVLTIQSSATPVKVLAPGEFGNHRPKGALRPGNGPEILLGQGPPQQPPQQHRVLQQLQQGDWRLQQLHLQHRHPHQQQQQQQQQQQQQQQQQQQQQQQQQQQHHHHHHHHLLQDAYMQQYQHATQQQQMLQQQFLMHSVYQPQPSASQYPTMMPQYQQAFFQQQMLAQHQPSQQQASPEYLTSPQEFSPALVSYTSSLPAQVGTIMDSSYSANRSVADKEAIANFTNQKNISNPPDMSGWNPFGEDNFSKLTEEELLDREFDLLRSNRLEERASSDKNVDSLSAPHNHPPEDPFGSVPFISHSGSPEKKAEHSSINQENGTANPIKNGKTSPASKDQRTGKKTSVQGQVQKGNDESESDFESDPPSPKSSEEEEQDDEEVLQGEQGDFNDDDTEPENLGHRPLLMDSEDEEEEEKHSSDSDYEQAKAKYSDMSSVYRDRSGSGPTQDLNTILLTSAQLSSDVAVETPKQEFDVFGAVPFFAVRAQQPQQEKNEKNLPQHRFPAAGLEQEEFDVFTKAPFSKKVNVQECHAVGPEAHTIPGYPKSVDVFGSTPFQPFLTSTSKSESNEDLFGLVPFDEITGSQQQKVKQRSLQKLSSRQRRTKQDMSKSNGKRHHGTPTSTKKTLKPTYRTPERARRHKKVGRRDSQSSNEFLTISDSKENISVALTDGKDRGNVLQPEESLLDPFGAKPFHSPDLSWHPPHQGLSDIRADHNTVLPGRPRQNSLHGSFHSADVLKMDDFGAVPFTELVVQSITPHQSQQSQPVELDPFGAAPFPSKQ
row,Compound,Kd
1,Cc1nc(N)sc1-c1ccnc(Nc2ccc(N3CCOCC3)cc2)n1 [CYC-116],0.007 µM (active)
2,CCc1cnn2c(NCc3ccc[n+]([O-])c3)cc(N3CCCC[C@H]3CCO)nc12 [DINACICLIB],> 30 µM (inactive)
3,Cc1cc(Nc2cc(N3CCN(C)CC3)nc(/C=C/c3ccccc3)n2)n[nH]1 [ENMD-2076],1.49 µM (active)
4,COc1cc2nccc(Oc3ccc(NC(=O)NC4CC4)c(Cl)c3)c2cc1C(N)=O [LENVATINIB],> 30 µM (inactive)
5,OCCn1cc(-c2cnc3nnn(Cc4ccc5ncccc5c4)c3n2)cn1 [PF-04217903],> 30 µM (inactive)
6,O=C(Nc1cccc(Cl)c1)Nc1ncc(CCNc2ncnc3ccsc23)s1 [SNS-314],> 30 µM (inactive)
7,COc1cc2nccc(Oc3ccc(NC(=O)Nc4cc(C)on4)c(Cl)c3)c2cc1OC [TIVOZANIB],> 30 µM (inactive)

# Molecular target: Ephrin type-A receptor 4 (Homo sapiens, UniProt P54764)
# Sequence (P54764 whole entry): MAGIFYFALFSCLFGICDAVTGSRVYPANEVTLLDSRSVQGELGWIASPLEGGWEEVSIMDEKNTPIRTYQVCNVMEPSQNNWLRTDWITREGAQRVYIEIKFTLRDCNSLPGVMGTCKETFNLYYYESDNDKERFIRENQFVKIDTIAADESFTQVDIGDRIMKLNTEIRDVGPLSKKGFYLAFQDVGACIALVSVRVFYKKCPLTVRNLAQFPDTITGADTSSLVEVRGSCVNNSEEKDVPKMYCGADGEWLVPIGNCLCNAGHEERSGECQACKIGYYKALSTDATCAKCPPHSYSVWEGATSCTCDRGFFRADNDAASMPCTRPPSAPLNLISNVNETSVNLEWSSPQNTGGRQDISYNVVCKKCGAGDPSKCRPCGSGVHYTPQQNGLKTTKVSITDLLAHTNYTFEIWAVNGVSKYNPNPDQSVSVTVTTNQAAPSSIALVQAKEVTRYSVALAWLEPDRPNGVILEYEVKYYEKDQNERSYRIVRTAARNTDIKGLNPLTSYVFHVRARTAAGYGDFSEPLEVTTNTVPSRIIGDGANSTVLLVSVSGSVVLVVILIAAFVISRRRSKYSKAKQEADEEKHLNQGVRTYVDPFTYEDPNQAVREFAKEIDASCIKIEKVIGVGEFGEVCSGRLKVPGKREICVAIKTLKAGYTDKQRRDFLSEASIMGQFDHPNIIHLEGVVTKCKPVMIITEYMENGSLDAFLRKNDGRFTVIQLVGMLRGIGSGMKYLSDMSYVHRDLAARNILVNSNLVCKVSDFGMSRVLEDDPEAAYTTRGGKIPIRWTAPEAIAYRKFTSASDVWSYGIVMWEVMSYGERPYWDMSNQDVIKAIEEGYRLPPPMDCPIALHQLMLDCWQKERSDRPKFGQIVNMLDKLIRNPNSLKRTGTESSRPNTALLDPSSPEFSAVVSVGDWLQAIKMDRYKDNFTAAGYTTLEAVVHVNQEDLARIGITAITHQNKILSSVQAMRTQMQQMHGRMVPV
row,Compound,Kd
1,CCc1cnn2c(NCc3ccc[n+]([O-])c3)cc(N3CCCC[C@H]3CCO)nc12 [DINACICLIB],> 30 µM (inactive)
2,Cc1cc(Nc2cc(N3CCN(C)CC3)nc(/C=C/c3ccccc3)n2)n[nH]1 [ENMD-2076],> 30 µM (inactive)
3,COc1cc2nccc(Oc3ccc(NC(=O)NC4CC4)c(Cl)c3)c2cc1C(N)=O [LENVATINIB],> 30 µM (inactive)
4,OCCn1cc(-c2cnc3nnn(Cc4ccc5ncccc5c4)c3n2)cn1 [PF-04217903],> 30 µM (inactive)
5,O=C(Nc1cccc(Cl)c1)Nc1ncc(CCNc2ncnc3ccsc23)s1 [SNS-314],> 30 µM (inactive)
6,COc1cc2nccc(Oc3ccc(NC(=O)Nc4cc(C)on4)c(Cl)c3)c2cc1OC [TIVOZANIB],5.56 µM (active)

# Molecular target: T2, Interleukin-1 receptor-associated kinase 4 (Homo sapiens, UniProt Q9NWZ3)
# T2 sequence (Q9NWZ3 whole entry): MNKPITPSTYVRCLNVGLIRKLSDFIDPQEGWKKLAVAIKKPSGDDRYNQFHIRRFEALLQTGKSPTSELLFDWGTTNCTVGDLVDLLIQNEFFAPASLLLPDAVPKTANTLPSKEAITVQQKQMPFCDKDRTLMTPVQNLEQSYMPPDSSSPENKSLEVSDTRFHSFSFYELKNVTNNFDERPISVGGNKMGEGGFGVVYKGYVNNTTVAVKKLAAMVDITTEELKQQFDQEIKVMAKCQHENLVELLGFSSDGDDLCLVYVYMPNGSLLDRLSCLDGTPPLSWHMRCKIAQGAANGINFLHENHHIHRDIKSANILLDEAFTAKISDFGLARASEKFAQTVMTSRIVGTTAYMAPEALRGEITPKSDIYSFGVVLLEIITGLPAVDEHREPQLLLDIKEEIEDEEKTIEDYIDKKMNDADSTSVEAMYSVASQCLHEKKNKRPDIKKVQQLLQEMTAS
row,Compound,Kd
1,CCc1cnn2c(NCc3ccc[n+]([O-])c3)cc(N3CCCC[C@H]3CCO)nc12 [DINACICLIB],> 30 µM (inactive)
2,COc1cc2nccc(Oc3ccc(NC(=O)NC4CC4)c(Cl)c3)c2cc1C(N)=O [LENVATINIB],> 30 µM (inactive)
3,OCCn1cc(-c2cnc3nnn(Cc4ccc5ncccc5c4)c3n2)cn1 [PF-04217903],> 30 µM (inactive)
4,COc1cc2nccc(Oc3ccc(NC(=O)Nc4cc(C)on4)c(Cl)c3)c2cc1OC [TIVOZANIB],> 30 µM (inactive)

# Molecular target: Tyrosine-protein kinase Lck (Homo sapiens, UniProt P06239)
# Sequence (P06239 whole entry): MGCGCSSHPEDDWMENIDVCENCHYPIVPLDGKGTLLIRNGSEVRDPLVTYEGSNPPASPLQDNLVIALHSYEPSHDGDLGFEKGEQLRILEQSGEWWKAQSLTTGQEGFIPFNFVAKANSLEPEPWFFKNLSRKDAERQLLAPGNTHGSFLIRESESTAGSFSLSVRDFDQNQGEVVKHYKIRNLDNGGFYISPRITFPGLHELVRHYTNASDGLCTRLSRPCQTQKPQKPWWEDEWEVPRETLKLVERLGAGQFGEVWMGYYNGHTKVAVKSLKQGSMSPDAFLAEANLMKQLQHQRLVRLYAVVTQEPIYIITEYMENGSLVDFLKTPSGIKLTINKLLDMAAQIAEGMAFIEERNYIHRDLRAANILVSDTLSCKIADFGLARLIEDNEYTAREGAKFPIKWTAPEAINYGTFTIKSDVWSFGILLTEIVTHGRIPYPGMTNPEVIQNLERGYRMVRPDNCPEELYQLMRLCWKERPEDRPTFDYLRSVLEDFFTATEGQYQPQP
row,Compound,Kd
1,COc1cc2nccc(Oc3ccc(NC(=O)NC4CC4)c(Cl)c3)c2cc1C(N)=O [LENVATINIB],> 30 µM (inactive)
2,COc1cc2nccc(Oc3ccc(NC(=O)Nc4cc(C)on4)c(Cl)c3)c2cc1OC [TIVOZANIB],2.18 µM (active)

# Molecular target: Serine/threonine-protein kinase PAK 4 (Homo sapiens, UniProt O96013)
# Sequence (O96013 whole entry): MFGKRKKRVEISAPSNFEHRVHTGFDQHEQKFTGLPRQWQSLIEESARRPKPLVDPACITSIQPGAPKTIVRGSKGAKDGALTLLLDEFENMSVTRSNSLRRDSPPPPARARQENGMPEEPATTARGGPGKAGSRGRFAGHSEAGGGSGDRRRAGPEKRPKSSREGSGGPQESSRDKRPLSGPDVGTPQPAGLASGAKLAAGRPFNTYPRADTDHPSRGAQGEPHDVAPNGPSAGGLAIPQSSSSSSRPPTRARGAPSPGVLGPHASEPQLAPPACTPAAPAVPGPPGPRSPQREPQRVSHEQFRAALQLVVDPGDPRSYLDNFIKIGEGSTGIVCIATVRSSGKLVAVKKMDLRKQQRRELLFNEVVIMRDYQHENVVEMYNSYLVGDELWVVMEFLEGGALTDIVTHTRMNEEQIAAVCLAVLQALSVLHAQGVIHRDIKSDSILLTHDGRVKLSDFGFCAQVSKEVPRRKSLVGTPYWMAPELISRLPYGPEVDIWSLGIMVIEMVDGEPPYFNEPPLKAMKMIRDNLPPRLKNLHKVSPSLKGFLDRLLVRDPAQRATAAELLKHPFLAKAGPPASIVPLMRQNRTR
row,Compound,Kd
1,COc1cc2nccc(Oc3ccc(NC(=O)NC4CC4)c(Cl)c3)c2cc1C(N)=O [LENVATINIB],> 30 µM (inactive)
2,COc1cc2nccc(Oc3ccc(NC(=O)Nc4cc(C)on4)c(Cl)c3)c2cc1OC [TIVOZANIB],> 30 µM (inactive)

# Molecular target: Serine/threonine-protein kinase N2 (Homo sapiens, UniProt Q16513)
# Sequence (Q16513 whole entry): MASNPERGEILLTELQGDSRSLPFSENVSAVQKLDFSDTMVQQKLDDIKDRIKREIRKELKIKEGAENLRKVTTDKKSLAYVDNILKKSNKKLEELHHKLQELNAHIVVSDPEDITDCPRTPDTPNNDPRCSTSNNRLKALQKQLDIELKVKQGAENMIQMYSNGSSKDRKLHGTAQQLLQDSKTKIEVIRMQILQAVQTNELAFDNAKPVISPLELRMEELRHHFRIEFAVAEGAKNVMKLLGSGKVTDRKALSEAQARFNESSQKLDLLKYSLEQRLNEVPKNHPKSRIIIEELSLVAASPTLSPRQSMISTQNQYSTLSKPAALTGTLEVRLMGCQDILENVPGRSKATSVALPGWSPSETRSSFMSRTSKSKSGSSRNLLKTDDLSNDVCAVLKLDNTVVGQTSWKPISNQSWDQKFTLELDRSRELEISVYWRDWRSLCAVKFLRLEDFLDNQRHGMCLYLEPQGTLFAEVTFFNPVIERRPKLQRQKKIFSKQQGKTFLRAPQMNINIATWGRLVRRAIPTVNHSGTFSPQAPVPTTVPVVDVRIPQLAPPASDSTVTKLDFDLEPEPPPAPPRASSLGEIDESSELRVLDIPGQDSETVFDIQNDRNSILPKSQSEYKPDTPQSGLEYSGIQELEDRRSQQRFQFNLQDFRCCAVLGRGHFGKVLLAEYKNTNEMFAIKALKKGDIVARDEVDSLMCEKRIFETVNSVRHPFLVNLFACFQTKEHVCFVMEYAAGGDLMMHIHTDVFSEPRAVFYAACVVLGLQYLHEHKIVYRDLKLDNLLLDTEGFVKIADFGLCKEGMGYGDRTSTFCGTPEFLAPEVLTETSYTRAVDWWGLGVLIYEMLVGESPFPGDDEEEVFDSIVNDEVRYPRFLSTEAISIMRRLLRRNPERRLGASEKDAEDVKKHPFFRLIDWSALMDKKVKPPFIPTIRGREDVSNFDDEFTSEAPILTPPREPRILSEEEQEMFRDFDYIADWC
row,Compound,Kd
1,CCc1cnn2c(NCc3ccc[n+]([O-])c3)cc(N3CCCC[C@H]3CCO)nc12 [DINACICLIB],> 30 µM (inactive)
2,COc1cc2nccc(Oc3ccc(NC(=O)NC4CC4)c(Cl)c3)c2cc1C(N)=O [LENVATINIB],> 30 µM (inactive)
3,OCCn1cc(-c2cnc3nnn(Cc4ccc5ncccc5c4)c3n2)cn1 [PF-04217903],> 30 µM (inactive)
4,COc1cc2nccc(Oc3ccc(NC(=O)Nc4cc(C)on4)c(Cl)c3)c2cc1OC [TIVOZANIB],> 30 µM (inactive)

# Molecular target: T3, cGMP-dependent protein kinase 1 (Homo sapiens, UniProt Q13976)
# T3 sequence (Q13976 whole entry): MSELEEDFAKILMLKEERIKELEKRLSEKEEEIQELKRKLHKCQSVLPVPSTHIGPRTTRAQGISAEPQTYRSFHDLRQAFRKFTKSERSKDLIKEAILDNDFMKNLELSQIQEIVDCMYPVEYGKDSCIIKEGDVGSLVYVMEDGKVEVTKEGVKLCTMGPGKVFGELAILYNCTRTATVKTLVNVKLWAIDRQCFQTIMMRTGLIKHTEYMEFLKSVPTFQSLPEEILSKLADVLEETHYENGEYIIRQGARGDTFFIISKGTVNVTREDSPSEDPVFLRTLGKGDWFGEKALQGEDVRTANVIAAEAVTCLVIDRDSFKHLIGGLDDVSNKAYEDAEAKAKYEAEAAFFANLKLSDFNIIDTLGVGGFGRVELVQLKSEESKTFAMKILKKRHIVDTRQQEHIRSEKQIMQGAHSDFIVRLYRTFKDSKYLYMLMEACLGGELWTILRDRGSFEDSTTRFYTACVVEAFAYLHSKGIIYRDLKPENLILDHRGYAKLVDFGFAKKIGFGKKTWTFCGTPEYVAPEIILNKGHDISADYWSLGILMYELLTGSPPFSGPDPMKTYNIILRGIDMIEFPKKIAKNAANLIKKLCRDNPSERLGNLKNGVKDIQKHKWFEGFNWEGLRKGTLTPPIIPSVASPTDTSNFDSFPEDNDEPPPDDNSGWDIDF
row,Compound,Kd
1,CCc1cnn2c(NCc3ccc[n+]([O-])c3)cc(N3CCCC[C@H]3CCO)nc12 [DINACICLIB],> 30 µM (inactive)
2,COc1cc2nccc(Oc3ccc(NC(=O)NC4CC4)c(Cl)c3)c2cc1C(N)=O [LENVATINIB],> 30 µM (inactive)
3,OCCn1cc(-c2cnc3nnn(Cc4ccc5ncccc5c4)c3n2)cn1 [PF-04217903],> 30 µM (inactive)
4,COc1cc2nccc(Oc3ccc(NC(=O)Nc4cc(C)on4)c(Cl)c3)c2cc1OC [TIVOZANIB],> 30 µM (inactive)

# Molecular target: T4, Exosome RNA helicase MTR4 (Homo sapiens, UniProt P42285)
# T4 sequence (P42285 whole entry): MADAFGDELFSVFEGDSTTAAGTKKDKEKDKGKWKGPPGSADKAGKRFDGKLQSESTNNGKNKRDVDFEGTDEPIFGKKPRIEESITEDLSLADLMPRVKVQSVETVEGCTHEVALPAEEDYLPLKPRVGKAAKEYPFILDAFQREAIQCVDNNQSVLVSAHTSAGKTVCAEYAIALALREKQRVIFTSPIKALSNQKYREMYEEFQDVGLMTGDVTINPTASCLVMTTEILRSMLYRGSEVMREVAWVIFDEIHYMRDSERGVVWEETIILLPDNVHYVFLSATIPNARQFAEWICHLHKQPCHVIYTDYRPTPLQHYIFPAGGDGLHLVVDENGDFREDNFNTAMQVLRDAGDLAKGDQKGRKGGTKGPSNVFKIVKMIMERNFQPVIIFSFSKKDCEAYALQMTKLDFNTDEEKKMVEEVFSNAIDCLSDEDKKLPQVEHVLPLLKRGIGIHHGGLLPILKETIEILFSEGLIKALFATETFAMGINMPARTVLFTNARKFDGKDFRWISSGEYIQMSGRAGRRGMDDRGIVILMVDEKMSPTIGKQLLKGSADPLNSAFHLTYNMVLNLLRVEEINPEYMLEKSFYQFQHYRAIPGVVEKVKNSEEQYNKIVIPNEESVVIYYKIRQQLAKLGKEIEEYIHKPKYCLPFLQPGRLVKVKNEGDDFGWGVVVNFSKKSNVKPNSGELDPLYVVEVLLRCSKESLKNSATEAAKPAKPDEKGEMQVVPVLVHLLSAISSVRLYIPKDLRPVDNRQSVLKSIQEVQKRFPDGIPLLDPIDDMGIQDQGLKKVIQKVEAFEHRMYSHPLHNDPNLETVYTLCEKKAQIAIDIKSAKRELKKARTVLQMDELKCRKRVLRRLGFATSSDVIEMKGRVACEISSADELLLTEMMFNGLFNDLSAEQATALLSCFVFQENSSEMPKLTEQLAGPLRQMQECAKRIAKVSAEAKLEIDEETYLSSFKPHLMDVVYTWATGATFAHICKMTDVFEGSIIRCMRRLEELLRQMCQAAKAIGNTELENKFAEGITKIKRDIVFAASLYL
row,Compound,Kd
1,Cc1nc(N)sc1-c1ccnc(Nc2ccc(N3CCOCC3)cc2)n1 [CYC-116],> 30 µM (inactive)
2,CCc1cnn2c(NCc3ccc[n+]([O-])c3)cc(N3CCCC[C@H]3CCO)nc12 [DINACICLIB],> 30 µM (inactive)
3,CN1CCN(c2ccc3nc(-c4c(N)c5c(F)cccc5[nH]c4=O)[nH]c3c2)CC1 [DOVITINIB],> 30 µM (inactive)
4,Cc1cc(Nc2cc(N3CCN(C)CC3)nc(/C=C/c3ccccc3)n2)n[nH]1 [ENMD-2076],> 30 µM (inactive)
5,CCn1c(-c2nonc2N)nc2c(C#CC(C)(C)O)ncc(OC[C@H]3CCCNC3)c21 [GSK-690693],> 30 µM (inactive)
6,COc1cc2nccc(Oc3ccc(NC(=O)NC4CC4)c(Cl)c3)c2cc1C(N)=O [LENVATINIB],> 30 µM (inactive)
7,Cc1cn(-c2cc(NC(=O)c3ccc(C)c(Nc4nccc(-c5cccnc5)n4)c3)cc(C(F)(F)F)c2)cn1 [NILOTINIB],> 30 µM (inactive)
8,OCCn1cc(-c2cnc3nnn(Cc4ccc5ncccc5c4)c3n2)cn1 [PF-04217903],> 30 µM (inactive)
9,O=C(Nc1cccc(Cl)c1)Nc1ncc(CCNc2ncnc3ccsc23)s1 [SNS-314],> 30 µM (inactive)
10,COc1cc2nccc(Oc3ccc(NC(=O)Nc4cc(C)on4)c(Cl)c3)c2cc1OC [TIVOZANIB],> 30 µM (inactive)
